Experimental data taken from ChEMBL document CHEMBL3885861, “Open TG-GATES”.

Species on record: Rattus norvegicus
Test: Open TG-GATES - Regimen: Daily Repeat
Format: toxicity, organism-based, Sprague-Dawley
Set-up: regimen Daily Repeat, gender Male, age 6 weeks
Conditions: in vivo, po, route gavage; for APTT / Bas / Eos / Fbg / Hb / Lym / MCH / MCHC / MCV / Mono / Plat / RBC / Ret / WBC / Ht: tissue Blood; for KIDNEY_L / KIDNEY_R / KIDNEY_TOTAL: tissue Kidney; for ALP / ALT / AST / BUN / CRE / Ca / Cl / DBIL / GLC / IP / K / LDH / Na / PL / RALB / TBIL / TC / TG / TP / gamma-GTP: tissue Plasma
[1] = 0 mg/kg, 72 h, dose level Control, time 3 day
[2] = 0 mg/kg, […], dose level Control, time 7 day
[3] = 0 mg/kg, […], dose level Control, time 14 day
[4] = 0 mg/kg, […], dose level Control, time 28 day
[5] = 25 mg/kg, 72 h, dose level Low, time 3 day
[6] = 25 mg/kg, […], dose level Low, time 7 day
[7] = 25 mg/kg, […], dose level Low, time 14 day
[8] = 25 mg/kg, […], dose level Low, time 28 day

Structure (SMILES): O=C1CN(/N=C/c2ccc(-c3ccc([N+](=O)[O-])cc3)o2)C(O)=N1 [DANTROLENE]
- TERMINAL_BW [1]: 235.4 g
- APTT [1]: 16.8 s
- Bas [1]: 0%
- Eos [1]: 1%
- Fbg [1]: 224.8 mg/dL
- Hb [1]: 13.3 g/dL
- Lym [1]: 77%
- MCH [1]: 21.6 pg
- MCHC [1]: 33.6%
- MCV [1]: 64.2 fL
- Mono [1]: 6.6%
- Plat [1]: 128.8 x10_4/uL
- RBC [1]: 618.2 x10_4/ul
- Ret [1]: 6.6%
- WBC [1]: 113.2 x10_2/uL
- KIDNEY_L [1]: 1.1 g
- KIDNEY_R [1]: 1.1 g
- KIDNEY_TOTAL [1]: 2.2 g
- ALP [1]: 842.8 IU/L
- ALT [1]: 34 IU/L
- AST [1]: 62.8 IU/L
- BUN [1]: 19.2 mg/dL
- CRE [1]: 0.6 mg/dL
- Ca [1]: 10.9 mg/dL
- Cl [1]: 104 meq/L
- DBIL [1]: 0.004 mg/dL
- GLC [1]: 200.6 mg/dL
- IP [1]: 7.5 mg/dL
- K [1]: 4.7 meq/L
- LDH [1]: 85 IU/L
- Na [1]: 140.2 meq/L
- PL [1]: 158.6 mg/dL
- RALB [1]: 3.8 g/dL
- TBIL [1]: 0.3 mg/dL
- TC [1]: 78.4 mg/dL
- TG [1]: 114.8 mg/dL
- TP [1]: 5.8 g/dL
- gamma-GTP [1]: 1 IU/L
- TERMINAL_BW [2]: 269.1 g
- TERMINAL_BW [3]: 300.9 g
- TERMINAL_BW [4]: 379.1 g
- APTT [2]: 16.9 s
- Bas [2]: 0%
- Eos [2]: 1%
- Fbg [2]: 213 mg/dL
- Hb [2]: 14 g/dL
- Lym [2]: 78.2%
- MCH [2]: 21 pg
- MCHC [2]: 33.6%
- MCV [2]: 62.7 fL
- Mono [2]: 7.4%
- Plat [2]: 126.8 x10_4/uL
- RBC [2]: 666.4 x10_4/ul
- Ret [2]: 5.1%
- WBC [2]: 106.4 x10_2/uL
- APTT [3]: 17.6 s
- Bas [3]: 0%
- Eos [3]: 0.4%
- Fbg [3]: 201.8 mg/dL
- Hb [3]: 14.8 g/dL
- Lym [3]: 82.6%
- MCH [3]: 20.3 pg
- MCHC [3]: 33.3%
- MCV [3]: 61.1 fL
- Mono [3]: 3.8%
- Plat [3]: 112.9 x10_4/uL
- RBC [3]: 728.6 x10_4/ul
- Ret [3]: 3.7%
- WBC [3]: 110.6 x10_2/uL
- APTT [4]: 18.6 s
- Bas [4]: 0%
- Eos [4]: 1.4%
- Fbg [4]: 217.6 mg/dL
- Hb [4]: 15.6 g/dL
- Ht [4]: 46.2%
- Lym [4]: 84%
- MCH [4]: 19.5 pg
- MCHC [4]: 33.9%
- MCV [4]: 57.5 fL
- Mono [4]: 4.6%
- Plat [4]: 117 x10_4/uL
- RBC [4]: 803.2 x10_4/ul
- Ret [4]: 2.8%
- WBC [4]: 103.3 x10_2/uL
- KIDNEY_L [2]: 1.2 g
- KIDNEY_R [2]: 1.2 g
- KIDNEY_TOTAL [2]: 2.4 g
- KIDNEY_L [3]: 1.2 g
- KIDNEY_R [3]: 1.3 g
- KIDNEY_TOTAL [3]: 2.5 g
- KIDNEY_L [4]: 1.4 g
- KIDNEY_R [4]: 1.3 g
- KIDNEY_TOTAL [4]: 2.7 g
- ALP [2]: 931.4 IU/L
- ALT [2]: 33.4 IU/L
- AST [2]: 64.2 IU/L
- BUN [2]: 18.2 mg/dL
- CRE [2]: 0.5 mg/dL
- Ca [2]: 10.7 mg/dL
- Cl [2]: 106.8 meq/L
- DBIL [2]: 0.002 mg/dL
- GLC [2]: 204 mg/dL
- IP [2]: 7.2 mg/dL
- K [2]: 5.1 meq/L
- LDH [2]: 76.6 IU/L
- Na [2]: 138.6 meq/L
- PL [2]: 164.2 mg/dL
- RALB [2]: 3.8 g/dL
- TBIL [2]: 0.3 mg/dL
- TC [2]: 79.6 mg/dL
- TG [2]: 138.8 mg/dL
- TP [2]: 5.8 g/dL
- gamma-GTP [2]: 1.4 IU/L
- ALP [3]: 833.2 IU/L
- ALT [3]: 31.4 IU/L
- AST [3]: 61.6 IU/L
- BUN [3]: 17.8 mg/dL
- CRE [3]: 0.6 mg/dL
- Ca [3]: 10.5 mg/dL
- Cl [3]: 105.4 meq/L
- DBIL [3]: 0.012 mg/dL
- GLC [3]: 203.6 mg/dL
- IP [3]: 7.5 mg/dL
- K [3]: 4.5 meq/L
- LDH [3]: 82.6 IU/L
- Na [3]: 141.8 meq/L
- PL [3]: 139.2 mg/dL
- RALB [3]: 3.9 g/dL
- TBIL [3]: 0.3 mg/dL
- TC [3]: 62 mg/dL
- TG [3]: 85.8 mg/dL
- TP [3]: 5.9 g/dL
- gamma-GTP [3]: 0.8 IU/L
- ALP [4]: 628.6 IU/L
- ALT [4]: 30.6 IU/L
- AST [4]: 50.8 IU/L
- BUN [4]: 18 mg/dL
- CRE [4]: 0.6 mg/dL
- Ca [4]: 10.3 mg/dL
- Cl [4]: 106.8 meq/L
- DBIL [4]: 0.016 mg/dL
- GLC [4]: 187.8 mg/dL
- IP [4]: 6.5 mg/dL
- K [4]: 4.4 meq/L
- LDH [4]: 83.2 IU/L
- Na [4]: 140 meq/L
- PL [4]: 143.4 mg/dL
- RALB [4]: 3.8 g/dL
- TBIL [4]: 0.3 mg/dL
- TC [4]: 69.6 mg/dL
- TG [4]: 127.2 mg/dL
- TP [4]: 6.1 g/dL
- gamma-GTP [4]: 1.2 IU/L
- TERMINAL_BW [5]: 228.7 g
- APTT [5]: 19.4 s
- Bas [5]: 0%
- Eos [5]: 1%
- Fbg [5]: 221.4 mg/dL
- Hb [5]: 13.7 g/dL
- Lym [5]: 78%
- MCH [5]: 21.8 pg
- MCHC [5]: 33.8%
- MCV [5]: 64.6 fL
- Mono [5]: 8.4%
- Plat [5]: 138.1 x10_4/uL
- RBC [5]: 624.8 x10_4/ul
- Ret [5]: 5.3%
- WBC [5]: 107 x10_2/uL
- KIDNEY_L [5]: 1.1 g
- KIDNEY_R [5]: 1.1 g
- KIDNEY_TOTAL [5]: 2.2 g
- ALP [5]: 873.2 IU/L
- ALT [5]: 37.8 IU/L
- AST [5]: 75 IU/L
- BUN [5]: 19.6 mg/dL
- CRE [5]: 0.6 mg/dL
- Ca [5]: 10.8 mg/dL
- Cl [5]: 104.4 meq/L
- DBIL [5]: 0.004 mg/dL
- GLC [5]: 194.8 mg/dL
- IP [5]: 6.2 mg/dL
- K [5]: 4.5 meq/L
- LDH [5]: 102.4 IU/L
- Na [5]: 139.8 meq/L
- PL [5]: 151.8 mg/dL
- RALB [5]: 4 g/dL
- TBIL [5]: 0.3 mg/dL
- TC [5]: 73.8 mg/dL
- TG [5]: 122.4 mg/dL
- TP [5]: 5.8 g/dL
- gamma-GTP [5]: 0.6 IU/L
- TERMINAL_BW [6]: 252.5 g
- TERMINAL_BW [7]: 308.4 g
- TERMINAL_BW [8]: 376.7 g
- APTT [6]: 16.1 s
- Bas [6]: 0%
- Eos [6]: 1.2%
- Fbg [6]: 215 mg/dL
- Hb [6]: 14.4 g/dL
- Lym [6]: 79%
- MCH [6]: 20.9 pg
- MCHC [6]: 33.9%
- MCV [6]: 61.5 fL
- Mono [6]: 8%
- Plat [6]: 108.3 x10_4/uL
- RBC [6]: 689.4 x10_4/ul
- Ret [6]: 4.6%
- WBC [6]: 121.3 x10_2/uL
- APTT [7]: 17.2 s
- Bas [7]: 0%
- Eos [7]: 0.8%
- Fbg [7]: 222.2 mg/dL
- Hb [7]: 14.8 g/dL
- Lym [7]: 85.2%
- MCH [7]: 20.3 pg
- MCHC [7]: 33.8%
- MCV [7]: 60.1 fL
- Mono [7]: 4.8%
- Plat [7]: 122.4 x10_4/uL
- RBC [7]: 726.6 x10_4/ul
- Ret [7]: 3.9%
- WBC [7]: 111.4 x10_2/uL
- APTT [8]: 17.2 s
- Bas [8]: 0%
- Eos [8]: 1%
- Fbg [8]: 211 mg/dL
- Hb [8]: 15.6 g/dL
- Ht [8]: 45.9%
- Lym [8]: 82%
- MCH [8]: 20 pg
- MCHC [8]: 34%
- MCV [8]: 58.9 fL
- Mono [8]: 4.8%
- Plat [8]: 112.7 x10_4/uL
- RBC [8]: 779 x10_4/ul
- Ret [8]: 2.9%
- KIDNEY_L [6]: 1.1 g
- KIDNEY_R [6]: 1.2 g
- KIDNEY_TOTAL [6]: 2.3 g
- KIDNEY_L [7]: 1.2 g
- KIDNEY_R [7]: 1.3 g
- KIDNEY_TOTAL [7]: 2.5 g
- KIDNEY_L [8]: 1.4 g
- KIDNEY_R [8]: 1.5 g
- KIDNEY_TOTAL [8]: 2.9 g
- ALP [6]: 808 IU/L
- ALT [6]: 35 IU/L
- AST [6]: 68.8 IU/L
- BUN [6]: 17 mg/dL
- CRE [6]: 0.6 mg/dL
- Ca [6]: 10.8 mg/dL
- Cl [6]: 107.8 meq/L
- DBIL [6]: 0.014 mg/dL
- GLC [6]: 192.8 mg/dL
- IP [6]: 6.1 mg/dL
- K [6]: 5 meq/L
- LDH [6]: 121.4 IU/L
- Na [6]: 138.8 meq/L
- PL [6]: 151.4 mg/dL
- RALB [6]: 3.9 g/dL
- TBIL [6]: 0.4 mg/dL
- TC [6]: 77 mg/dL
- TG [6]: 92.6 mg/dL
- TP [6]: 5.7 g/dL
- gamma-GTP [6]: 1 IU/L
- ALP [7]: 770 IU/L
- ALT [7]: 33.2 IU/L
- AST [7]: 69.6 IU/L
- BUN [7]: 18.6 mg/dL
- CRE [7]: 0.6 mg/dL
- Ca [7]: 10.6 mg/dL
- Cl [7]: 104.2 meq/L
- DBIL [7]: 0.01 mg/dL
- GLC [7]: 198 mg/dL
- IP [7]: 6.1 mg/dL
- K [7]: 4.3 meq/L
- LDH [7]: 112.8 IU/L
- Na [7]: 141.6 meq/L
- PL [7]: 148.8 mg/dL
- RALB [7]: 3.9 g/dL
- TBIL [7]: 0.3 mg/dL
- TC [7]: 67.8 mg/dL
- TG [7]: 150.4 mg/dL
- TP [7]: 6 g/dL
- gamma-GTP [7]: 0.8 IU/L
- ALP [8]: 601.2 IU/L
- ALT [8]: 28.6 IU/L
- AST [8]: 55.8 IU/L
- BUN [8]: 18.2 mg/dL
- CRE [8]: 0.5 mg/dL
- Ca [8]: 10.6 mg/dL
- Cl [8]: 107.2 meq/L
- DBIL [8]: 0.018 mg/dL
- GLC [8]: 179 mg/dL
- IP [8]: 5 mg/dL
- K [8]: 4.3 meq/L
- LDH [8]: 106.6 IU/L
- Na [8]: 140.4 meq/L
- PL [8]: 154.8 mg/dL
- RALB [8]: 4 g/dL
- TBIL [8]: 0.3 mg/dL
- TC [8]: 76.4 mg/dL
- TG [8]: 145.8 mg/dL
- TP [8]: 6.2 g/dL
